These results are taken from publication PMC10800023 (Human Molecular Genetics, 2023).

One data set deals with human P-gp (MDR1). The experiment in a line: MDR1-MDCK permeability / P-gp efflux assay. The procedure:
(§1) To measure transport by P-gp, Madin-Darby canine kidney (MDCK) cells that had been transfected with the human P-gp (MDR1) gene were plated in a Transwell plate and cultured until polarized. MDCK cells that are not transfected with human P-gp were used as a control. Compounds were added to either the apical or the basolateral side of the cells, and transport across the membrane was measured.
(§2) Testing for permeability and MDR1 substrate assessment was done in MDCK cells transfected to overexpress human MDR1 gene that encodes efflux transporter protein (P-gp). […] Briefly, cells were maintained in Dulbecco’s modified Eagle medium (DMEM) with 10% fetal bovine serum and 1% penicillin/streptomycin in a humidified incubator at 37°C with 5% CO2. The study was performed by Absorption Systems (now Pharmaron; Exton, PA). The MDR1-MDCK and MDCK control cell lines were seeded into 12-well plates for 7 days. Integrity of monolayer tight junctions was monitored preincubation by transepithelial electrical resistance (TEER) measurement. […] The samples were withdrawn at t = 0 and 60 min from the receiver and donor compartments. Compound levels were measured by LC/MS–MS. Additionally, post-assay, cell monolayer integrity was checked with Lucifer Yellow permeability measurement. Transport assay low- and high-permeability control compounds were run in parallel for assay validation. Papp values were calculated considering compound concentrations across the monolayer and cell surface area. Efflux ratios were calculated based on Papp B > A over Papp A > B. The difference between the MDR1-MDCK and the MDCK cell efflux ratios was also calculated. […] Compounds were classified by Absorption Systems/Pharmaron as follows: […]

A further data set deals with MDCK cells. The experiment in a line: MDCK control cell permeability (not transfected with human P-gp). The note with it: dog, MDCK-MDR1, 60 min, pH 7.4. How it is done:
as §1, §2

A further data set concerns P-gp (MDR1). Kind of data set: MDR1-MDCK permeability / P-gp efflux assay. The conditions noted are these: MDCK-MDR1, pH 7.4. The procedure: as §1, §2
Data set [1] can be described thus: MDCK control cell permeability (not transfected with human P-gp). The note with it: dog, pH 7.4. How it is done: as §1, §2
Setting [2] is: dog, MDCK-MDR1, 60 min, 1 μM, pH 7.4.
[3] abbreviates: dog, MDCK-MDR1, 60 min, 10 μM, pH 7.4.

For the molecule `CC1=N[C@]2(C(=O)CO)[C@@H](C[C@H]3[C@@H]4CCC5=CC(=O)C=C[C@]5(C)[C@H]4[C@@H](O)C[C@@]32C)O1` [21-Des-deflazacort], the Papp values in the data set with human P-gp (MDR1) (MDCK-MDR1) is below 3 ×10⁻⁶ cm/s. In the data set with human P-gp (MDR1) (setting [2]), the “Apical to Basolateral MDR1-MDCK” value is 1.08 10 ^ −6 cm/s and the “Basolateral to Apical MDR1-MDCK” value was 72.8 10 ^ −6 cm/s. Moreover, in the data set on human P-gp (MDR1) (setting [3]), the “Apical to Basolateral MDR1-MDCK” value was 1.11 10 ^ −6 cm/s and the “Basolateral to Apical MDR1-MDCK” value is listed as 73.6 10 ^ −6 cm/s. Also, in the data set with MDCK cells (1 μM), the “Apical to Basolateral MDCK” value is on record as 12.4 10 ^ −6 cm/s and the “Basolateral to Apical MDCK” value is 15.5 10 ^ −6 cm/s. In the data set on MDCK cells (10 μM), the “Apical to Basolateral MDCK” value is reported as 6.28 10 ^ −6 cm/s and the “Basolateral to Apical MDCK” value is recorded as 8.8 10 ^ −6 cm/s.
Turning to `CC(C)NCC(O)COc1cccc2ccccc12` (centres unmarked) [propranolol], in the data set on P-gp (MDR1), the Papp at 60 min was in the range of 19.7 to 21.4 ×10⁻⁶ cm/s.
Regarding `C[C@]12C=CC(=O)C=C1CC[C@@H]1[C@@H]2C(=O)C[C@@]2(C)[C@H]1CC[C@]2(O)C(=O)CO` [Prednisone], in the data set on P-gp (MDR1), the Papp at 60 min is below 3 ×10⁻⁶ cm/s. Further, in the data set on human P-gp (MDR1) (10 μM), the “Apical to Basolateral MDR1-MDCK” value was 0.499 10 ^ −6 cm/s. Moreover, in the data set with human P-gp (MDR1) (1 and 10 μM, from Papp (A-to-B) and efflux ratio), the brain penetration classification entry is listed as “low”. In addition, in the data set with human P-gp (MDR1) (dog, MDCK-MDR1, pH 7.4), the Papp A→B at 60 min, 1 μM came to 0.263 ×10⁻⁶ cm/s; the Papp B→A at 60 min, 1 μM came out at 43.8 ×10⁻⁶ cm/s; the Papp B→A at 60 min, 10 μM turned out to be 51.8 ×10⁻⁶ cm/s. In data set [1], this molecule returned a Papp A→B at 60 min, 1 μM of 2.83 ×10⁻⁶ cm/s; a Papp A→B at 60 min, 10 μM of 2.09 ×10⁻⁶ cm/s; a Papp B→A at 60 min, 1 μM of 3.42 ×10⁻⁶ cm/s; a Papp B→A at 60 min, 10 μM of 2.86 ×10⁻⁶ cm/s.
With `C[C@H]1O[C@@H](O[C@H]2[C@@H](O)C[C@H](O[C@H]3[C@@H](O)C[C@H](O[C@H]4CC[C@@]5(C)[C@H](CC[C@@H]6[C@@H]5C[C@@H](O)[C@]5(C)[C@@H](C7=CC(=O)OC7)CC[C@]65O)C4)O[C@@H]3C)O[C@@H]2C)C[C@H](O)[C@@H]1O` [digoxin], in the data set with P-gp (MDR1), the Papp A→B at 60 min is 0.0521 to 0.0558 ×10⁻⁶ cm/s, the Papp B→A at 60 min was 19.6 to 20.7 ×10⁻⁶ cm/s and the efflux ratio at 60 min was in the range of 352 to 398.

One may read the Papp as a coefficient for how fast a substance crosses the barrier. As usually defined, the Papp A→B is the apparent permeability from the apical to the basolateral side of a cell layer. As usually defined, the Papp B→A is how fast a substance crosses the layer from the basolateral side. One may read the efflux ratio as a quotient of directional permeabilities that is used to spot active efflux.
